Measurements published in patent publication US11571423B2, “Small molecule modulators of human sting” (Curadev Pharma Limited, priority 2017, dated 2023).
Counter-ions that a name gives are not always drawn. Like-named read-outs stand apart in the source and are kept apart here.

Columns and labels:
hSTING(H232) = hSTING(H232) (Homo sapiens, UniProt Q86WV6); assay: Luciferase reporter assay in HEK293T-hSTING-Luciferase cells, H232/REF polymorph; format: cell-based; conditions: H232/REF polymorph of human STING, EC50 range class
hSTING(H232), sequence (Q86WV6 whole entry): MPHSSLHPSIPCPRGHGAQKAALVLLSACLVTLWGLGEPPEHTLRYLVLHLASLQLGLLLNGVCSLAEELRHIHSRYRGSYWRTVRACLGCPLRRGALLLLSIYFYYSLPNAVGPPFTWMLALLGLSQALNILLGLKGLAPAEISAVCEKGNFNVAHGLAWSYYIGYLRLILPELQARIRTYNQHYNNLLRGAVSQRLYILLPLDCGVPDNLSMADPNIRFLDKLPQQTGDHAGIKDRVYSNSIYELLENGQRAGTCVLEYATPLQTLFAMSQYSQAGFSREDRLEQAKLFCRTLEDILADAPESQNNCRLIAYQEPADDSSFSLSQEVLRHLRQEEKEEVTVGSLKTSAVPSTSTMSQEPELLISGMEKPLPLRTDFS
From the text: (§1) Stable Cell Line Generation • a) Stable STING expressing cells—Stable HEK293T STING-expressing cell lines were generated using plasmids purchased from Invivogen, CA, USA, that contain STING cDNA cloned into the pUNO-1 vector under hEF1-HTLV promoter and containing the Blasticidin selection cassette. The plasmids hSTING(R232), hSTING(H232), hSTING(HAQ) were directly procured from Invivogen while hSTING (AQ) and hSTING (Q) were derived from hSTING(HAQ) and hSTING (R232) plasmids respectively by using a PCR based site directed mutagenesis method. These vectors were individually transfected into HEK293T cells using Lipofectamine (Invitrogen) and transfected cells were selected under Blasticidin selection. These transfected cells were further subjected to clonal selection using the limiting dilution method to obtain clonally pure populations of HEK cells transfected with each of the above mentioned human STING variants. Only those clones were selected in which ligand independent activation of STING was minimal. • b) Stable Luciferase reporter gene expressing cells—Stable HEK293T Luciferase reporter gene expressing cell lines were generated using pCDNA4 plasmids under an IRF-inducible promoter. This promoter is comprised of five tandem interferon-stimulated response elements (ISRE) fused to an ISG54 minimal promoter. This vector was transfected into HEK293T cells using Lipofectamine (Invitrogen) and transfected cells were selected under Zeocin selection. These transfected cells were further subjected to clonal selection using the limiting dilution method to obtain clonally pure populations of HEK cells transfected the Luciferase reporter construct. Only those clones were selected in which ligand independent induction of luciferase was minimal.
(§2) 5×10^5 clonally selected HEK293T-hSTING-Luciferase cells were seeded in 384-well plates in growth medium and stimulated with novel compounds. After 20 hr of stimulation supernatant were removed and secretary reporter gene activity were measured using the Quanti-Luc detection system (Invivogen) on a Spectramax i3X luminometer.
(§3) In the tables below, EC50 value ranges for exemplary compounds are given.
(§4) Single nucleotide polymorphisms of human STING have been described, which can affect the functional potency of compounds that modulate the activity of the STING protein (see Yi et. al., PLoS One, October 2013, 8(10), e77846). The 5 major polymorphisms of human STING are shown in FIG. 1, with their prevalence in human populations indicated.
(§5) The tables below show the potency of selected compounds of the invention against the most common polymorphisms.

IRF pathway = assay: Reporter gene expression assay in THP1-Dual cells, IRF axis (secreted Lucia luciferase); format: cell-based, human; conditions: 20 hr stimulation, EC50 range class, read-out: THP-IRF activity
Description: (§6) THP1-Dual™ cells (Invivogen) were derived from the human THP-1 monocyte cell line by stable integration of two inducible reporter constructs. As a result, THP1-Dual™ cells allow the simultaneous study of the NF-κB pathway, by monitoring the activity of secreted SEAP, and the IRF pathway, by assessing the activity of a secreted luciferase (Lucia). 5×10^5 THP1-Dual™ cells were seeded in 384-well plates in growth medium and stimulated with novel compounds. After 20 hr of stimulation supernatants were removed and reporter proteins were readily measured in the cell culture supernatant using QUANTI-Blue™ (Invivogen), a SEAP detection reagent, and QUANTI-Luc™ (Invivogen), a luciferase detection reagent on a Spectramax i3X luminometer.
(§7) EC50 value ranges for exemplary compounds tested in the above assay are given.

NF-κB pathway = assay: Reporter gene expression assay in THP1-Dual cells, NFkB axis (secreted SEAP); format: cell-based, human; conditions: 20 hr stimulation, EC50 range class, read-out: THP-NFκB activity
Description: as §6, §7

hSTING(HAQ) = hSTING(HAQ) (Homo sapiens, UniProt Q86WV6, G230A/H232R/R293Q/R71H); assay: Luciferase reporter assay in HEK293T-hSTING-Luciferase cells, HAQ polymorph; format: cell-based; conditions: HAQ polymorph of human STING, EC50 range class
hSTING(HAQ), sequence (Q86WV6 whole entry R71H/G230A/H232R/R293Q): as the sequence (Q86WV6 whole entry) above, with R71H, G230A, H232R, R293Q counted along it
From the text: as §1, §2, §3, §4, §5

hSTING(R232) = hSTING(R232) (Homo sapiens, UniProt Q86WV6, H232R); assay: Luciferase reporter assay in HEK293T-hSTING-Luciferase cells, R232 (wild type) human STING; format: cell-based; conditions: 20 hr stimulation, read-out: R232 human activity (EC50 range)
hSTING(R232), sequence (Q86WV6 whole entry H232R): as the sequence (Q86WV6 whole entry) above, with H232R counted along it
Procedure, shortened: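 Clonal HEK293T cells stably expressing STING from a pUNO-1 plasmid plus an ISRE/ISG54-driven secreted luciferase reporter; 5×10^5 cells stimulated with compound for 20 hr. Supernatant luciferase read by luminescence, giving fold-induction over baseline and EC50.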

Row | EC50 (hSTING(H232)) [nM] | EC50 (IRF pathway; Homo sapiens) [nM] | EC50 (NF-κB pathway; Homo sapiens) [nM] | EC50 (hSTING(HAQ)) [nM] | EC50 (hSTING(R232)) [nM] | EC50 (IRF pathway) [nM] | EC50 (NF-κB pathway) [nM] | SMILES
1 | < 1000 | < 1000 | < 1000 | < 1000 | < 1000 |  |  | COc1cc(F)c(CNC(=O)c2ccc3c(c2)N(Cc2c(F)cccc2Cl)C(=O)N(C)[C@H]3C)c(F)c1 [Example 246, (S)-1-(2-chloro-6-fluorobenzyl)-N-(2,6-difluoro-4-methoxybenzyl)-3,4-dimethyl-2-oxo-1,2,3,4-tetrahydroquinazoline-7-carboxamide]
2 | > 10000 | > 10000 | > 10000 | > 10000 | 1000 to 10000 |  |  | CN1Cc2ccc(C(=O)NCc3c(F)cc(F)cc3F)cc2N(Cc2c(F)cccc2C#N)C1=O [Example 39, 1-(2-cyano-6-fluorobenzyl)-3-methyl-2-oxo-N-(2,4,6-trifluorobenzyl)-1,2,3,4-tetrahydroquinazoline-7-carboxamide]
3 | < 1000 | 1000 to 10000 | 1000 to 10000 | 1000 to 10000 | < 1000 |  |  | C[C@H]1c2ccc(C(=O)NCc3c(F)cc(F)cc3F)cc2N(Cc2c(F)cccc2NCCO)C(=O)N1C [Example 264, (S)-1-(2-fluoro-6-((2-hydroxyethyl)amino)benzyl)-3,4-dimethyl-2-oxo-N-(2,4,6-trifluorobenzyl)-1,2,3,4-tetrahydroquinazoline-7-carboxamide hydrochloride]
4 | 1000 to 10000 | > 10000 | > 10000 | 1000 to 10000 | < 1000 |  |  | CC1c2ccc(C(=O)NCc3c(F)cc(F)cc3F)cc2N(Cc2c(F)cccc2OS(C)(=O)=O)C(=O)N1C (stereo not shown) [Example 204, 2-((3,4-dimethyl-2-oxo-7-((2,4,6-trifluorobenzyl)carbamoyl)-3,4-dihydroquinazolin-1(2H)-yl)methyl)-3-fluorophenyl methanesulfonate]
5 | 1000 to 10000 | > 10000 | > 10000 | 1000 to 10000 | 1000 to 10000 |  |  | CC1c2ccc(C(=O)NCc3ccc(O)cc3)cc2N(Cc2c(F)cccc2Cl)C(=O)N1C (stereo not shown) [Example 235, 1-(2-chloro-6-fluorobenzyl)-N-(4-hydroxybenzyl)-3,4-dimethyl-2-oxo-1,2,3,4-tetrahydroquinazoline-7-carboxamide]
6 | 1000 to 10000 | 1000 to 10000 | 1000 to 10000 | 1000 to 10000 | < 1000 |  |  | CC1c2ccc(C(=O)NCc3cc4ccccc4o3)cc2N(Cc2c(F)cccc2Cl)C(=O)N1C (stereo not shown) [Example 213, N-(benzofuran-2-ylmethyl)-1-(2-chloro-6-fluorobenzyl)-3,4-dimethyl-2-oxo-1,2,3,4-tetrahydroquinazoline-7-carboxamide]
7 | < 1000 | < 1000 | < 1000 | < 1000 | < 1000 |  |  | COc1cc(F)c(CN2C(=O)N(C)[C@@H](C)c3ccc(C(=O)NCc4c(F)cc(F)cc4F)cc32)c(Cl)c1 [Example 293, (S)-1-(2-chloro-6-fluoro-4-methoxybenzyl)-3,4-dimethyl-2-oxo-N-(2,4,6-trifluorobenzyl)-1,2,3,4-tetrahydroquinazoline-7-carboxamide]
8 | 1000 to 10000 | 1000 to 10000 | 1000 to 10000 | 1000 to 10000 | < 1000 |  |  | C[C@H]1c2ccc(C(=O)NCc3c(F)cc(F)cc3F)cc2N(Cc2ncccc2F)C(=O)N1C [Example 227, (S)-1-((3-fluoropyridin-2-yl)methyl)-3,4-dimethyl-2-oxo-N-(2,4,6-trifluorobenzyl)-1,2,3,4-tetrahydroquinazoline-7-carboxamide]
9 | < 1000 |  |  | < 1000 | < 1000 | < 1000 | < 1000 | Cc1cccc(F)c1CN1C(=O)N(C)C(C)c2ccc(C(=O)NCc3c(F)cc(F)cc3F)cc21 (stereo not shown) [Example 203, 1-(2-fluoro-6-methylbenzyl)-3,4-dimethyl-2-oxo-N-(2,4,6-trifluorobenzyl)-1,2,3,4-tetrahydroquinazoline-7-carboxamide]
10 | 1000 to 10000 | 1000 to 10000 | 1000 to 10000 | 1000 to 10000 | 1000 to 10000 |  |  | Cc1ncc(CN2C(=O)N(C)Cc3ccc(C(=O)NCc4c(F)cc(F)cc4F)cc32)s1 [Example 20, 3-methyl-1-((2-methylthiazol-5-yl)methyl)-2-oxo-N-(2,4,6-trifluorobenzyl)-1,2,3,4-tetrahydroquinazoline-7-carboxamide]
11 | < 1000 | < 1000 | < 1000 | < 1000 | < 1000 |  |  | CC1c2ccc(C(=O)NCc3c(F)cc(F)cc3F)cc2N(Cc2c(F)cccc2C(F)(F)F)C(=O)N1C (stereo not shown) [Example 196, 1-(2-fluoro-6-(trifluoromethyl)benzyl)-3,4-dimethyl-2-oxo-N-(2,4,6-trifluorobenzyl)-1,2,3,4-tetrahydroquinazoline-7-carboxamide]
12 | 1000 to 10000 | 1000 to 10000 | 1000 to 10000 | 1000 to 10000 | < 1000 |  |  | C[C@H]1c2ccc(C(=O)NCc3c(F)cc(F)cc3F)cc2N(Cc2ccc(N=[N+]=[N-])cc2)C(=O)N1C [Example 239, (S)-1-(4-azidobenzyl)-3,4-dimethyl-2-oxo-N-(2,4,6-trifluorobenzyl)-1,2,3,4-tetrahydroquinazoline-7-carboxamide]
13 | < 1000 | < 1000 | < 1000 | < 1000 | < 1000 |  |  | C[C@H]1c2ccc(C(=O)NCc3c(F)cc(F)cc3F)cc2N(Cc2c(N)ccc(F)c2F)C(=O)N1C [Example 285, (S)-1-(6-amino-2,3-difluorobenzyl)-3,4-dimethyl-2-oxo-N-(2,4,6-trifluorobenzyl)-1,2,3,4-tetrahydroquinazoline-7-carboxamide]
14 | > 10000 | > 10000 | > 10000 | > 10000 | < 1000 |  |  | CC1c2ccc(C(=O)NCc3c(F)cc(F)cc3F)cc2N(Cc2cc(C(N)=O)ccc2F)C(=O)N1C (stereo not shown) [Example 167, 1-(5-carbamoyl-2-fluorobenzyl)-3,4-dimethyl-2-oxo-N-(2,4,6-trifluorobenzyl)-1,2,3,4-tetrahydroquinazoline-7-carboxamide]
15 | < 1000 | 1000 to 10000 | 1000 to 10000 | < 1000 | < 1000 |  |  | C[C@H]1c2ccc(C(=O)NCc3c(F)cc(O)cc3F)cc2N(Cc2c(F)cccc2Cl)C(=O)N1C [Example 252, (S)-1-(2-chloro-6-fluorobenzyl)-N-(2,6-difluoro-4-hydroxybenzyl)-3,4-dimethyl-2-oxo-1,2,3,4-tetrahydroquinazoline-7-carboxamide]
16 | 1000 to 10000 | > 10000 | > 10000 | 1000 to 10000 | 1000 to 10000 |  |  | C[C@H]1c2ccc(C(=O)NCc3c(F)cc(F)cc3F)cc2N(Cc2ccc(N)cc2)C(=O)N1C [Example 243, (S)-1-(4-aminobenzyl)-3,4-dimethyl-2-oxo-N-(2,4,6-trifluorobenzyl)-1,2,3,4-tetrahydroquinazoline-7-carboxamide]
17 | < 1000 | 1000 to 10000 | 1000 to 10000 | < 1000 | < 1000 |  |  | Cc1cc(CN2C(=O)N(C)C(C)c3ccc(C(=O)NCc4c(F)cc(F)cc4F)cc32)c(F)cn1 (stereo not shown) [Example 237, 1-((5-fluoro-2-methylpyridin-4-yl)methyl)-3,4-dimethyl-2-oxo-N-(2,4,6-trifluorobenzyl)-1,2,3,4-tetrahydroquinazoline-7-carboxamide]
